Measured values: ChEMBL document CHEMBL1921674, “Novel tricyclic inhibitors of IKK2: discovery and SAR leading to the identification of 2-methoxy-N-((6-(1-methyl-4-(methylamino)-1,6-dihydroimidazo[4,5-d]pyrrolo[2,3-b]pyridin-7-yl)pyridin-2-yl)methyl)acetamide (BMS-066)” (Bioorg Med Chem Lett, 2011)
Calls of active or inactive are those of the source. No cut-off for these calls is given here.

Experiments:
[1] = AUC in SJL mouse plasma at 8 mg/kg, iv after 8 hrs; type: ADME, organism-based; design: time < 8 hr, dose 8 mg/kg, route intravenous
[2] = AUC in dog at 5 mg/kg, po; type: ADME, organism-based, Canis lupus familiaris; design: dose 5 mg/kg, route oral; conditions: plasma
Blood = assay: Antiinflammatory activity in human whole blood assessed as inhibition of LPS-induced TNFalpha release treated for 45 mins before LPS challenge measured after 6 hrs by ELISA; type: functional, tissue-based; conditions: Homo sapiens, Blood
Cytochrome P450 1A2 = Cytochrome P450 1A2 (Homo sapiens, UniProt P05177); assay: Inhibition of CYP1A2; type: ADME
[3] = AUC in Sprague-Dawley rat liver at 2 mg/kg, iv after 8 hrs; type: ADME, organism-based; design: time < 8 hr, dose 2 mg/kg, route intravenous
[4] = target: Protein-tyrosine kinase 6 (Homo sapiens, UniProt Q13882); assay: Inhibition of BRK at 10 uM
[5] = Half life in mouse at 2 mg/kg, iv; type: ADME, organism-based; design: dose 2 mg/kg, route intravenous; conditions: in vivo
Mus musculus [6] = assay: Reduction in TNBS-induced colitis in mouse […] model assessed as decrease of body weight at 3 mg/kg, administered intrarectally 1 day before TNBS challenge twice daily for 4 days; type: functional; design: scale not given: the % may be the effect or the level left
[7] = Protein binding in human serum; type: ADME, cell-free; conditions: read-out: PB (converted)
Cytochrome P450 2D6 = Cytochrome P450 2D6 (Homo sapiens, UniProt P10635); assay: Inhibition of CYP2D6; type: ADME
Mus musculus [8] = assay: Reduction in TNBS-induced colitis in mouse […] model assessed as decrease of body weight loss at 10 mg/kg, administered intrarectally 1 day before TNBS challenge twice daily for 4 days; type: functional, organism-based; design: dose 10 mg/kg
Mus musculus [9] = assay: Reduction in TNBS-induced colitis in intrarectally dosed mouse […] model assessed as decrease of colon length administered 1 day before TNBS challenge twice daily for 4 days; type: functional, organism-based
[10] = Oral bioavailability in dog at 5 mg/kg; type: ADME, organism-based, Canis lupus familiaris; conditions: in vivo
Salmonella typhimurium = assay: Induction of mutagenicity in Salmonella Typhimurium by Ames test; type: toxicity, organism-based; conditions: salmonella enterica subsp. enterica serovar typhimurium
Mus musculus [11] = assay: Reduction in TNBS-induced colitis in mouse […] model assessed as decrease in inflammation histological score at 10 mg/kg administered intrarectally 1 day before TNBS challenge twice daily for 4 days by hematoxylin-eosin staining relative to control; type: functional, organism-based; design: dose 10 mg/kg
Cytochrome P450 3A4 = Cytochrome P450 3A4 (Homo sapiens, UniProt P08684); assay: Inhibition of CYP3A4; type: ADME
[12] = Dissociation constant, pKa of the compound; type: physicochemical
[13] = Volume of distribution at steady state in mouse at 2 mg/kg, iv; type: ADME, organism-based; design: dose 2 mg/kg, route intravenous; conditions: in vivo, read-out: Vdss
[14] = Volume of distribution at steady state in dog at 1 mg/kg, iv; type: ADME, organism-based, Canis lupus familiaris; design: dose 1 mg/kg, route intravenous; conditions: in vivo, read-out: Vdss

Cytochrome P450 3A4, sequence (P08684 whole entry): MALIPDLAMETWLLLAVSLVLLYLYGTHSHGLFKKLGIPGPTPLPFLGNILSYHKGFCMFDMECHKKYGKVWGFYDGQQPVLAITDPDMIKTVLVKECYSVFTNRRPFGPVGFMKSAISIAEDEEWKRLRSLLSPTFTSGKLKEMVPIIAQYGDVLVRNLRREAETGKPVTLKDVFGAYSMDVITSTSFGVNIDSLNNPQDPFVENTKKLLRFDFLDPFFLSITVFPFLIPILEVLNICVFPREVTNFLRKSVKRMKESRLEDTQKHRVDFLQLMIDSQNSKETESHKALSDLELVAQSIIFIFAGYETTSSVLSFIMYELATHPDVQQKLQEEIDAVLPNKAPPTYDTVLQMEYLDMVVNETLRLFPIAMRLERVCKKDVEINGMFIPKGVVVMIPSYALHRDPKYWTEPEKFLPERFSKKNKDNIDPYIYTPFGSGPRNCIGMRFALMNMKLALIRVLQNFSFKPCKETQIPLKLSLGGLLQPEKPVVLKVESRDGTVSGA
Cytochrome P450 1A2, sequence (P05177 whole entry): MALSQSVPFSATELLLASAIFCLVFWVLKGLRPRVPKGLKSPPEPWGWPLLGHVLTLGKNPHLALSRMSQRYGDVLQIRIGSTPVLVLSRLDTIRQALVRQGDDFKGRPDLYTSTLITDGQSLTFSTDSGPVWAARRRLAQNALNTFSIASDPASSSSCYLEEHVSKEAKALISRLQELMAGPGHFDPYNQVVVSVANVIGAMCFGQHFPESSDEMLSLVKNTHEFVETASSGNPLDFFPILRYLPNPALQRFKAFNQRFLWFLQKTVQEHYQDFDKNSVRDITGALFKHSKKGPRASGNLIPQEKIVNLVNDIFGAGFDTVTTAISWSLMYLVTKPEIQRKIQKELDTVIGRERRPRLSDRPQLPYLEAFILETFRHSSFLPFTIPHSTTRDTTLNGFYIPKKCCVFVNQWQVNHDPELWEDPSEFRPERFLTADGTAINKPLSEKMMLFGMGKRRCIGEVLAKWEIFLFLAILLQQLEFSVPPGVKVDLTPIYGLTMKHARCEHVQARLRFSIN
Protein-tyrosine kinase 6, sequence (Q13882 whole entry, looked up): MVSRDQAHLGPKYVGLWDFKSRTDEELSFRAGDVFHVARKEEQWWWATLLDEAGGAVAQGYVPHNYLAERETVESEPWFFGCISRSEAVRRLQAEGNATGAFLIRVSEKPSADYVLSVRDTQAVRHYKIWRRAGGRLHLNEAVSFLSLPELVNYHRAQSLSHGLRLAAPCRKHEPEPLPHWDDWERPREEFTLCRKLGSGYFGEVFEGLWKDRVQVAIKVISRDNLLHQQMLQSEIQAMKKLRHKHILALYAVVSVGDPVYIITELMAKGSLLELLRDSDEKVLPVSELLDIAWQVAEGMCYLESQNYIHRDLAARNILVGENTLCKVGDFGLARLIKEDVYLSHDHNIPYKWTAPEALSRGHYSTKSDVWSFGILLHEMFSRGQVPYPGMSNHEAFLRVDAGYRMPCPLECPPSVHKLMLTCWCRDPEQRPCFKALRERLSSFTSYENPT
Cytochrome P450 2D6, sequence (P10635 whole entry): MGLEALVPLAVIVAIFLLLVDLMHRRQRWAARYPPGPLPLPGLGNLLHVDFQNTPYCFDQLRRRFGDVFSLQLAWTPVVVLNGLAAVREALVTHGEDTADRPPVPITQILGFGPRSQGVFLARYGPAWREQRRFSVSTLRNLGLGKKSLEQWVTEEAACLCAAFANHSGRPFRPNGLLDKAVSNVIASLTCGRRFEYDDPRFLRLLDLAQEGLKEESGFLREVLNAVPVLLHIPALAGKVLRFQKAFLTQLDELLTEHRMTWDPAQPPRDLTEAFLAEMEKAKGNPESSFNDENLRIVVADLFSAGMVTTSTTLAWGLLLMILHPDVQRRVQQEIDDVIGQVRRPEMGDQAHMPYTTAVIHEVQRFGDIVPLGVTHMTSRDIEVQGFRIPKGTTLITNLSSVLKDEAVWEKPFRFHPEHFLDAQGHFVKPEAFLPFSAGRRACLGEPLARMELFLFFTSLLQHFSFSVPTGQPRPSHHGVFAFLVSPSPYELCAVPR

## CNc1nc2[nH]c(-c3cccc(CNC(=O)COC)n3)cc2c2c1ncn2C
[1]
  AUC at 8 h: 18 µM·h
[2]
  AUC: 50 µM·h
Blood
  IC50: 1 µM
Cytochrome P450 1A2
  IC50: > 40 µM
[3]
  AUC at 8 h: 16 µM·h
[4]
  inhibition: > 75%
[5]
  half-life: 39.6 min
Mus musculus [6]
  Activity: 10%
[7]
  fraction unbound: 0.074
Cytochrome P450 2D6
  IC50: > 40 µM
Mus musculus [8]
  Activity: Active
Mus musculus [9]
  Activity: Dose-dependent effect
[10]
  bioavailability: 72%
Salmonella typhimurium
  Activity: Non-toxic
Mus musculus [11]
  Activity: Active
Cytochrome P450 3A4
  IC50: > 40 µM
[12]
  pKa: 2.5
[13]
  Vd: 1.8 L/kg
[14]
  Vd: 0.6 L/kg
